From ChEMBL document CHEMBL5316357, “Discovery of Linvencorvir (RG7907), a Hepatitis B Virus Core Protein Allosteric Modulator, for the Treatment of Chronic HBV Infection” (J Med Chem, 2023)

How the values were obtained:
[1] = AUClast in male Wistar Han rat at 3 mg/kg,po by LC-MS/MS analysis; type: ADME, organism-based; parameters: dose 3 mg/kg, route po; conditions: in vivo
[2] = AUClast in cynomolgus monkey at 2 mg/kg,iv by LC-MS/MS analysis; type: ADME, organism-based, Macaca fascicularis; parameters: dose 2 mg/kg, route iv; conditions: in vivo
[3] = Half life in female minipig at 30 mg/kg,po by LC-MS/MS analysis; type: ADME, organism-based, Sus scrofa domesticus; conditions: pig, in vivo
[4] = target: Cytochrome P450 2C19 (Homo sapiens, UniProt P33261); assay: Inhibition of CYP2C19 (unknown origin); type: ADME
[5] = Oral bioavailability in mouse plasma at 3 mg/kg; type: ADME, organism-based; conditions: in vivo
[6] = Oral bioavailability in male cynomolgus monkey at 10 mg/kg by LC-MS/MS analysis; type: ADME, organism-based, Macaca fascicularis; conditions: in vivo
[7] = Oral bioavailability in male cynomolgus monkey at 30 mg/kg by LC-MS/MS analysis; type: ADME, organism-based, Macaca fascicularis; conditions: in vivo
[8] = Clearance in mouse plasma at 1 mg/kg,iv; type: ADME, organism-based
[9] = Oral bioavailability in male minipig at 3 mg/kg by LC-MS/MS analysis; type: ADME, organism-based, Sus scrofa domesticus; conditions: pig, in vivo
[10] = Half life in male Wistar Han rat at 10 mg/kg,po by LC-MS/MS analysis; type: ADME, organism-based; conditions: in vivo
[11] = Volume of distribution at steady state in minipig at 2 mg/kg,iv by LC-MS/MS analysis; type: ADME, organism-based, Sus scrofa domesticus; conditions: pig, in vivo, read-out: Vdss
[12] = Octanol-water partition coefficient, logD of the compound at pH 7.4; type: physicochemical
[13] = Cmax in female minipig at 30 mg/kg,po by LC-MS/MS analysis; type: ADME, organism-based, Sus scrofa domesticus; parameters: dose 30 mg/kg, route po; conditions: pig, in vivo
[14] = Half life in male cynomolgus monkey at 10 mg/kg,po by LC-MS/MS analysis; type: ADME, organism-based, Macaca fascicularis; conditions: in vivo
[15] = Half life in mouse plasma at 1 mg/kg,iv; type: ADME, organism-based
[16] = Half life in female minipig at 3 mg/kg,po by LC-MS/MS analysis; type: ADME, organism-based, Sus scrofa domesticus; conditions: pig, in vivo
[17] = Half life in female cynomolgus monkey at 3 mg/kg,po by LC-MS/MS analysis; type: ADME, organism-based, Macaca fascicularis; conditions: in vivo
[18] = Cmax in female minipig at 10 mg/kg,po by LC-MS/MS analysis; type: ADME, organism-based, Sus scrofa domesticus; parameters: dose 10 mg/kg, route po; conditions: pig, in vivo
[19] = Oral bioavailability in female minipig at 10 mg/kg by LC-MS/MS analysis; type: ADME, organism-based, Sus scrofa domesticus; conditions: pig, in vivo
[20] = AUClast in female Wistar Han rat at 30 mg/kg,po by LC-MS/MS analysis; type: ADME, organism-based; parameters: dose 30 mg/kg, route po; conditions: in vivo
[21] = Half life in male cynomolgus monkey at 30 mg/kg,po by LC-MS/MS analysis; type: ADME, organism-based, Macaca fascicularis; conditions: in vivo
[22] = Cmax in male minipig at 30 mg/kg,po by LC-MS/MS analysis; type: ADME, organism-based, Sus scrofa domesticus; parameters: dose 30 mg/kg, route po; conditions: pig, in vivo
[23] = Oral bioavailability in male minipig at 10 mg/kg by LC-MS/MS analysis; type: ADME, organism-based, Sus scrofa domesticus; conditions: pig, in vivo
[24] = Cmax in male cynomolgus monkey at 30 mg/kg,po by LC-MS/MS analysis; type: ADME, organism-based, Macaca fascicularis; parameters: dose 30 mg/kg, route po; conditions: in vivo
[25] = AUClast in male cynomolgus monkey at 3 mg/kg,po by LC-MS/MS analysis; type: ADME, organism-based, Macaca fascicularis; parameters: dose 3 mg/kg, route po; conditions: in vivo
[26] = Half life in female minipig at 10 mg/kg,po by LC-MS/MS analysis; type: ADME, organism-based, Sus scrofa domesticus; conditions: pig, in vivo
[27] = AUClast in female Wistar Han rat at 3 mg/kg,po by LC-MS/MS analysis; type: ADME, organism-based; parameters: dose 3 mg/kg, route po; conditions: in vivo
[28] = Cmax in male Wistar Han rat at 3 mg/kg,po by LC-MS/MS analysis; type: ADME, organism-based; parameters: dose 3 mg/kg, route po; conditions: in vivo
[29] = Half life in female Wistar Han rat at 30 mg/kg,po by LC-MS/MS analysis; type: ADME, organism-based; conditions: in vivo
[30] = Cmax in female minipig at 3 mg/kg,po by LC-MS/MS analysis; type: ADME, organism-based, Sus scrofa domesticus; parameters: dose 3 mg/kg, route po; conditions: pig, in vivo
[31] = target: Cytochrome P450 2D6 (Homo sapiens, UniProt P10635); assay: Inhibition of CYP2D6 (unknown origin); type: ADME
[32] = Half life in male Wistar Han rat at 3 mg/kg,po by LC-MS/MS analysis; type: ADME, organism-based; conditions: in vivo
[33] = Half life in male minipig at 10 mg/kg,po by LC-MS/MS analysis; type: ADME, organism-based, Sus scrofa domesticus; conditions: pig, in vivo
[34] = Half life in female cynomolgus monkey at 30 mg/kg,po by LC-MS/MS analysis; type: ADME, organism-based, Macaca fascicularis; conditions: in vivo
[35] = Tmax in female Wistar Han rat at 10 mg/kg,po by LC-MS/MS analysis; type: ADME, organism-based; conditions: in vivo
[36] = Oral bioavailability in female minipig at 3 mg/kg by LC-MS/MS analysis; type: ADME, organism-based, Sus scrofa domesticus; conditions: pig, in vivo
[37] = Tmax in male minipig at 30 mg/kg,po by LC-MS/MS analysis; type: ADME, organism-based, Sus scrofa domesticus; conditions: pig, in vivo
[38] = Tmax in female minipig at 30 mg/kg,po by LC-MS/MS analysis; type: ADME, organism-based, Sus scrofa domesticus; conditions: pig, in vivo
[39] = Tmax in female cynomolgus monkey at 3 mg/kg,po by LC-MS/MS analysis; type: ADME, organism-based, Macaca fascicularis; conditions: in vivo
[40] = Cmax in female Wistar Han rat at 3 mg/kg,po by LC-MS/MS analysis; type: ADME, organism-based; parameters: dose 3 mg/kg, route po; conditions: in vivo
[41] = Toxicity in rat assessed as NOAEL administrated upto 28 days; conditions: in vivo, time < 28 day
[42] = Tmax in male Wistar Han rat at 3 mg/kg,po by LC-MS/MS analysis; type: ADME, organism-based; conditions: in vivo
[43] = AUClast in male Wistar Han rat at 30 mg/kg,po by LC-MS/MS analysis; type: ADME, organism-based; parameters: dose 30 mg/kg, route po; conditions: in vivo
[44] = AUClast in male Wistar Han rat at 10 mg/kg,po by LC-MS/MS analysis; type: ADME, organism-based; parameters: dose 10 mg/kg, route po; conditions: in vivo
[45] = AUClast in male minipig at 30 mg/kg,po by LC-MS/MS analysis; type: ADME, organism-based, Sus scrofa domesticus; parameters: dose 30 mg/kg, route po; conditions: pig, in vivo
[46] = target: T1, Cytochrome P450 1A2 (Homo sapiens, UniProt P05177); assay: Inhibition of CYP1A2 (unknown origin); type: ADME
T1 sequence (P05177 whole entry): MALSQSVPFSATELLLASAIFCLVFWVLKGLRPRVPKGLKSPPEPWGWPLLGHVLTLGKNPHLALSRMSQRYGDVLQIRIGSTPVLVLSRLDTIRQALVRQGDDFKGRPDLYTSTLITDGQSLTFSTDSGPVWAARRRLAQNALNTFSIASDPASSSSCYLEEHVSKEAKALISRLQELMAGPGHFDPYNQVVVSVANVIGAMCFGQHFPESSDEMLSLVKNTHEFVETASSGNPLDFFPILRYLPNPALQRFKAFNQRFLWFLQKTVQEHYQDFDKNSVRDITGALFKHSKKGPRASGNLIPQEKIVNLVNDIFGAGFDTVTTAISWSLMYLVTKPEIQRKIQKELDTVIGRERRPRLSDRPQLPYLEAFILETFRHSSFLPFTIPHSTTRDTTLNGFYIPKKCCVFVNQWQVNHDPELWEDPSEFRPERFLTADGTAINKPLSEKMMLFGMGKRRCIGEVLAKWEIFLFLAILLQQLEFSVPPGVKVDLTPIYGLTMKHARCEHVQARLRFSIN

[47] = Tmax in male Wistar Han rat at 10 mg/kg,po by LC-MS/MS analysis; type: ADME, organism-based; conditions: in vivo
[48] = Tmax in male cynomolgus monkey at 30 mg/kg,po by LC-MS/MS analysis; type: ADME, organism-based, Macaca fascicularis; conditions: in vivo
[49] = Ratio of AUC (0 to infinity) in liver to plasma of mouse at 3 mg/kg,po; type: ADME, organism-based; conditions: read-out: Ratio AUC

Sequence of Cytochrome P450 2D6 (P10635 whole entry): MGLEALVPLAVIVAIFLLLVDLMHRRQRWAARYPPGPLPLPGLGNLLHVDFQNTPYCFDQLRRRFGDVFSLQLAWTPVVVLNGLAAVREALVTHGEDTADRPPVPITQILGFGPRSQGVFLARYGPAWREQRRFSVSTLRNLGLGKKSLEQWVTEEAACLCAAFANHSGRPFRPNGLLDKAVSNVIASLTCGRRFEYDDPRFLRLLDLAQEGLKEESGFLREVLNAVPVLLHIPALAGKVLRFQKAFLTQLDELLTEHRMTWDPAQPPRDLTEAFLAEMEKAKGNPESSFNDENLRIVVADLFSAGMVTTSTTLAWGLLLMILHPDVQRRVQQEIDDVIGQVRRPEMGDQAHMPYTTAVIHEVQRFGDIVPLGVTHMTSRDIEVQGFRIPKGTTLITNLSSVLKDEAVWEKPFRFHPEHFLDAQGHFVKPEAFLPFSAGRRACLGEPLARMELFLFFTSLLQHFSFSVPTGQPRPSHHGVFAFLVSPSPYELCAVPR
Sequence of Cytochrome P450 2C19 (P33261 whole entry): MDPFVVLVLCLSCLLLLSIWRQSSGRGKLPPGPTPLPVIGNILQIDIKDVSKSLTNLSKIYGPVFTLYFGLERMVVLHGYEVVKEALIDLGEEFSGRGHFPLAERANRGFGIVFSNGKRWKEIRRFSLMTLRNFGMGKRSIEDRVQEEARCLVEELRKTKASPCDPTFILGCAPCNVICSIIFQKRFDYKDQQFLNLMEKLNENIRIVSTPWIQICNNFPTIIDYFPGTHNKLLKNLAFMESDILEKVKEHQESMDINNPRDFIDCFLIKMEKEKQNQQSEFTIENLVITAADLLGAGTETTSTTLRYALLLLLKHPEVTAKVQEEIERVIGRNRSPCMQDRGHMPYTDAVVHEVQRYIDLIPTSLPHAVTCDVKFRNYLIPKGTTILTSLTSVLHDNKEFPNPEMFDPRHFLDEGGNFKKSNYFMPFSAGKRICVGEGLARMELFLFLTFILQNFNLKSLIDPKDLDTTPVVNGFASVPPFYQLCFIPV

With CCOC(=O)C1=C(CN2CCN3C(=O)N(CC(C)(C)C(=O)O)C[C@@H]3C2)NC(c2nccs2)=N[C@H]1c1cccc(F)c1C [LINVENCORVIR] the AUC(0-t) [1] was 209 ng·h/mL, the AUC(0-t) [2] was 1490 ng·h/mL and the half-life [3] was 8.26 h. It also gave an IC50 [4] greater than 50 µM, an F [5] of 33% and a bioavailability [6] of 15.8%. The bioavailability [7] was 25.8%, the clearance [8] was 20 mL/min/kg and the bioavailability [9] was 12.6%. The half-life [10] was 1.43 h, the Vd [11] was 1.12 L/kg and the logD [12] was 1.75. The Cmax [13] was 429 ng/mL, the half-life [14] was 6.64 h and the half-life [15] was 0.9 h. For the same molecule, the half-life [16] was 9.68 h, the half-life [17] was 5.92 h and the Cmax [18] was 132 ng/mL. The bioavailability [19] was 11.4%, the AUC(0-t) [20] was 17800 ng·h/mL and the half-life [21] was 6.12 h. It also gave a Cmax [22] of 768 ng/mL, a bioavailability [23] of 18.6% and a Cmax [24] of 2870 ng/mL. The AUC(0-t) [25] was 280 ng·h/mL, the half-life [26] was 9.7 h and the AUC(0-t) [27] was 220 ng·h/mL. It also gave a Cmax [28] of 70.2 ng/mL, a half-life [29] of 1.8 h and a Cmax [30] of 46 ng/mL. The IC50 [31] was greater than 50 µM, the half-life [32] was 1.87 h and the half-life [33] was 7.28 h. For the same molecule, the half-life [34] was 5.98 h, the Tmax [35] was 1 h and the bioavailability [36] was 10.6%. For the same molecule, the Tmax [37] was 2 h, the Tmax [38] was 2 h and the Tmax [39] was 0.25 h. It also gave a Cmax [40] of 80.4 ng/mL, an NOAEL at 672 h [41] of 250 mg/kg and a Tmax [42] of 0.5 h. It also gave an AUC(0-t) [43] of 8500 ng·h/mL, an AUC(0-t) [44] of 1440 ng·h/mL and an AUC(0-t) [45] of 4150 ng·h/mL. For the same molecule, the IC50 [46] was greater than 50 µM, the Tmax [47] was 1.5 h and the Tmax [48] was 2 h. It also gave a Kp [49] of 32.
